# Reference: patent US8242083B2, “Kinase substrates” (PerkinElmer Health Sciences, Inc., priority 2008, dated 2012)
# Tested on: 83 tyrosine kinases
# Assay: Panel of 83 TR-FRET tyrosine kinase assays
# Assay type: biochemical
# Conditions: 83 tyrosine kinases tested; conditions of Example 1
# Description: TR-FRET kinase assays are performed under standardized conditions: various individual kinases are incubated with 50 nM of kinase substrate BRB1 labeled with the TR-FRET acceptor dye ULight (PerkinElmer) and 200 micromolar ATP in 10 μL of kinase assay buffer (50 mM HEPES pH7.5, 10 mM MgCl2, 3 mM MnCl2, 1 mM EGTA, 2 mM DTT and 0.01% Tween-20) for 2 hours at room temperature. Reactions are stopped with EDTA, and anti-phospho-tyrosine antibodies (clone PT66) labeled with the TR-FRET europium chelate donor dye are added to a final concentration of 2 nM in a final volume of 20 μL. The TR-FRET signal emitted at 665 nm is read one hour after the addition of antibodies using a TR-FRET plate reader such as the Envision® Multilabel Plate reader (PerkinElmer). The emitted signal at 665 nm is proportional to the extent of peptide phosphorylation, Control reactions indicative of background are performed excluding ATP from the reaction.
# Assay conditions are identical to those used described for FIG. 1.
# The BRB2 peptide is tested with 83 tyrosine kinases in assay conditions identical to those used for BRB1 in Example 1. Data obtained with BRB2 indicate that the peptide is phosphorylated by 65 kinases out of 83 (78%), with signal to noise ratio of >3.
sequence,measurement,value
CGG E AYE AYE AYE AYA EYE ARR (CGGEAYEAYEAYEAYAEYEARR; tyrosine kinase substrate peptide) [BRB2],Number of kinases out of 83 that phosphorylated the peptide with signal to noise ratio of >3,65
same,Percentage of 83 kinases that phosphorylated the peptide with signal to noise ratio of >3,78%
